# Measured values published in patent US6620593B1, “Method for safety evaluation of chemical compound using recombinant yeast expressing human cytochrome P450” (Sumitomo Chemical Company, Limited, priority 1993, dated 2003).
# Where two headings read alike, the source gives them in different places.
# Tests used:
# [1] = tested on: human cytochrome P450 2A6; test: Ames test using yeast S-9 Mix fraction and microsomal fraction, human P450 2A6 as metabolic activation source; assay type: cell-based
# Text: (§1) The toxic effects, in particular mutagenicity, of the resulting metabolites can be determined by a conventional biological analytic method such as the Ames Test. For example, the metabolites present in the reaction solution are allowed to react with mutant bacteria such as histidine requiring Salmonella strain (Salmonella typhimurium (his−)), or tryptophan requiring Escherichia coil (Escherichia coil (trp−)), and then determine whether the metabolites cause the back mutation of the bacteria whether the colonies of revertant which is not requiring the amino acid (His+ or Trp+) are formed, and, if formed, how many colonies. In place of the bacteria, mammalian cells such as MCL-5 cells, which are sensitive to cell toxicity of a chemical compound (U.S. Pat. No. 4,532,204), can be used.
# (§2) The Ames test method was in accordance with the customary method described, for example, in Mutat. Res., (1975) 31, 347. 2-Aminoanthrathene which is an arylamine type compound was used as a specimen compound. […]
# [2] = target: T1, human cytochrome P450 2C8 (Homo sapiens, UniProt P10632); test: Ames test using yeast S-9 Mix fraction and microsomal fraction, human P450 2C8 as metabolic activation source; assay type: cell-based
# T1 construct: The entire protein coding region of the P450 2C8 gene was amplified by the PCR method; made in house; host or cells: Saccharomyces cerevisiae AH22 (whole transformed cells, S-9 Mix or microsomal fractions)
# T1 sequence (P10632 1-490): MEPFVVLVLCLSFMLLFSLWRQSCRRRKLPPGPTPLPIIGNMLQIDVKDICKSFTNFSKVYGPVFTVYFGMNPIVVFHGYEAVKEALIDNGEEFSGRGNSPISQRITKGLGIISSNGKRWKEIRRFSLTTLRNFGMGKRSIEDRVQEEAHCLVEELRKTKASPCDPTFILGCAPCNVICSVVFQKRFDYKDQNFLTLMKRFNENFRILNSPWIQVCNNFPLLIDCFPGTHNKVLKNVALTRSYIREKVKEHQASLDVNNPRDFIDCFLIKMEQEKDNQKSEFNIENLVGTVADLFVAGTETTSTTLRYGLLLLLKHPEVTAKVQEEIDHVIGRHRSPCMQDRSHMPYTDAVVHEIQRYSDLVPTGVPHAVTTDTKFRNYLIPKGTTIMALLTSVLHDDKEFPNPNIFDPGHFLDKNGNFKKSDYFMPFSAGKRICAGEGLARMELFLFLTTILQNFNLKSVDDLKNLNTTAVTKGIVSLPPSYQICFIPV
# Text: as §1, §2
# [3] = target: T2, human P450 2E1 (Homo sapiens, UniProt P05181); test: Ames test using yeast S-9 Mix fraction and microsomal fraction, human P450 2E1 as metabolic activation source; assay type: cell-based
# T2 sequence (P05181 whole entry): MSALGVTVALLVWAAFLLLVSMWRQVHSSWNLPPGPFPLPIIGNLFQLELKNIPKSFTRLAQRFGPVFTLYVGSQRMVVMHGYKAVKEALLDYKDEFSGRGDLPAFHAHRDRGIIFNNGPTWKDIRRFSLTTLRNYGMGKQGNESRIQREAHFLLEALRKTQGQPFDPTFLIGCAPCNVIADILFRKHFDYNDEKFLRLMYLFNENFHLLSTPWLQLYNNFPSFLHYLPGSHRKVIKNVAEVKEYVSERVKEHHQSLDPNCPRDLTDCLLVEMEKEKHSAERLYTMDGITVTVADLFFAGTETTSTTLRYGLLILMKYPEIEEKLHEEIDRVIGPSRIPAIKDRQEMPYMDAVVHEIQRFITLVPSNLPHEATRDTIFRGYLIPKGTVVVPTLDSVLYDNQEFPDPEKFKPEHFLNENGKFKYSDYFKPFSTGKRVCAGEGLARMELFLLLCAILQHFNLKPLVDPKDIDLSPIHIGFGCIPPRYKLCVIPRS
# Text: as §1
# (§3) The Ames test method was in accordance with the customary method described, for example, in Mutat. Res., (1975) 31, 347. 2-Aminoanthrathene which is an arylamine type compound was used as a specimen compound. (1) Rat S-9 Mix supernatant fraction (obtained by homogenizing liver and then subjected to centrifugation (9000×g, 10 min), manufactured by Kikkoman) containing each kind of rat P450 molecular species at the concentration of 1200 pmol per 1 sample and (2) Yeast S-9 Mix fraction obtained from each kind of yeast cells expressing human P450 or a microsomal fraction prepared from the yeast S-9 Mix fraction were used as a metabolic activation source in the Ames test.
# [4] = tested on: human cytochrome P450 3A4; test: Ames test using yeast S-9 Mix fraction and microsomal fraction, human P450 3A4 as metabolic activation source; assay type: cell-based
# Text: as §1, §2
# [5] = target: T3, human P450 1A2 (Homo sapiens, UniProt P05177); test: Ames test using yeast S-9 Mix fraction and microsomal fraction, human P450 1A2 as metabolic activation source; assay type: cell-based; set-up: made in house; host or cells: Saccharomyces cerevisiae AH22 (whole transformed cells, S-9 Mix or microsomal fractions)
# T3 sequence (P05177 1-516): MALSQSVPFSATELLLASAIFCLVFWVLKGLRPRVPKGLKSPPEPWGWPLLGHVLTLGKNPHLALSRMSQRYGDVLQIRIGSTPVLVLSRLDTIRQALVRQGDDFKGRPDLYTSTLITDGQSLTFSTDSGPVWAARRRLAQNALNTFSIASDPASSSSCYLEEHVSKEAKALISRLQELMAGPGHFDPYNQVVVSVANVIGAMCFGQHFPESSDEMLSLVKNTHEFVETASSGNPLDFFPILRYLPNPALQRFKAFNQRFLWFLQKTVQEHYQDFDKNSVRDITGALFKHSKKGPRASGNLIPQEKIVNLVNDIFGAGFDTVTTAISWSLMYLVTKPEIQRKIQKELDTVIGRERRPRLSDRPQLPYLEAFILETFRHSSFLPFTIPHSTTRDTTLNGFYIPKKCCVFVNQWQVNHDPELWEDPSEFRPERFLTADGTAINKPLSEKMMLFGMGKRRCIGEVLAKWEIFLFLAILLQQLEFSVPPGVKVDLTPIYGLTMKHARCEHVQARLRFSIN
# Text: as §1, §3
# [6] = target: T4, human P450 2B6 (Homo sapiens, UniProt P20813); test: Metabolism (hydroxylation) of substrates using transformed yeast cells or microsomal fractions expressing human P450 2B6; settings: microsomes
# T4 sequence (P20813 1-491): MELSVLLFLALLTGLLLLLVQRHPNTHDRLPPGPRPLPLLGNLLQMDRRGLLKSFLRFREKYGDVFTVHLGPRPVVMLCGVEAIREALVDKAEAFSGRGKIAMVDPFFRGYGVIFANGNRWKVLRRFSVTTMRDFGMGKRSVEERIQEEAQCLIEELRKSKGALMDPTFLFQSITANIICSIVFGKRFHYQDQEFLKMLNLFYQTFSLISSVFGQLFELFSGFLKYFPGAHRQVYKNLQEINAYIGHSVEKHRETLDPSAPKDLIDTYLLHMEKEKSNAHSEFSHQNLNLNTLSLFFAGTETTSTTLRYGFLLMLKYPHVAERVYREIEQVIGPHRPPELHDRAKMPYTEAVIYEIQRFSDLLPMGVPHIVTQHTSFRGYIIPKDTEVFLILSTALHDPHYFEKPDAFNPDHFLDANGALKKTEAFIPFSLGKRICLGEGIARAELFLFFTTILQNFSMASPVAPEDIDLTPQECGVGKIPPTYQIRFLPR
# Method: (§4) Then 2 ml of dichloromethane was added.
# [7] = target: human P450 2C19 (Homo sapiens, UniProt P33261); test: Metabolism (hydroxylation) of substrates using transformed yeast cells or microsomal fractions expressing human P450 2C19; settings: microsomes
# Chain of human P450 2C19 (P33261 whole entry): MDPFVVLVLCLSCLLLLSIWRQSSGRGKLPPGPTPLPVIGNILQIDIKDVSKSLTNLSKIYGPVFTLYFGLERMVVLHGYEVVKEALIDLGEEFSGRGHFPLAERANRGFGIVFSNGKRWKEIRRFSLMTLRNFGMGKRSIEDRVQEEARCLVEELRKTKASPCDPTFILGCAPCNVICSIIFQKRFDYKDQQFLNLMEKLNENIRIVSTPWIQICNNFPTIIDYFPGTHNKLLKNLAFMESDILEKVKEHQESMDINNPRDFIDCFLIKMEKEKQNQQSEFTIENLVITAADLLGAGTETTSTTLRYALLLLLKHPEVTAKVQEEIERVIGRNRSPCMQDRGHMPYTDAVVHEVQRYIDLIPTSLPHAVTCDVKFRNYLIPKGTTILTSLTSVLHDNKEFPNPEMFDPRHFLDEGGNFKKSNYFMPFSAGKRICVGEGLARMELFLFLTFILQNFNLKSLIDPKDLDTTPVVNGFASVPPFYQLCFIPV
# Method: as §4
# [8] = target: T5, human P450 1A1 (Homo sapiens, UniProt P04798); settings: microsomes
# T5 sequence (P04798 1-512): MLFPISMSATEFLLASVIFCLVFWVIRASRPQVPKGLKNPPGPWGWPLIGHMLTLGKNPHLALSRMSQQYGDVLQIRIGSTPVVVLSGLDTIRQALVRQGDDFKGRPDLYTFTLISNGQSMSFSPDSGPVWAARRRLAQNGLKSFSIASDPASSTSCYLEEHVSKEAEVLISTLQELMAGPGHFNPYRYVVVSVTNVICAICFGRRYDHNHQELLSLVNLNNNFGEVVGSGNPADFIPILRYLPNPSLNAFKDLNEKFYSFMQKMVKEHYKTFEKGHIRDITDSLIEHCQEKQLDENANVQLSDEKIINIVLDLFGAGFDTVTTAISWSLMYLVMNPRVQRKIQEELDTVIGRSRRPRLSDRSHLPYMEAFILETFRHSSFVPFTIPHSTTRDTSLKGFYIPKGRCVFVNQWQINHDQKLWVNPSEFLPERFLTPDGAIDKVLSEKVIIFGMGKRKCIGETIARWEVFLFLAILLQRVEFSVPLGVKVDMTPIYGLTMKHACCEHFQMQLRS
# Method: (§5) To the supernatant, 2 ml of dichloromethane was added. After sufficient stirring, the dichloromethane layer was recovered by centrifugation (5000×g, 10 min), and the solvent was evaporated under reduced pressure. The resultant residue was dissolved in 100 μl of acetonitrile, and the solution was analyzed by HPLC under the following conditions.
# (§6) Then 2 ml of dichloromethane was added. After sufficient stirring, the solution was centrifuged again (5000×g, 10 min). The dichloromethane layer was recovered from the separated layer and the solvent was evaporated under reduced pressure. The resultant residue was dissolved in 100 μl of acetonitrile, and the solution was analyzed by HPLC under the following conditions.
# Then 2 ml of dichloromethane was added to the supernatant and vigorously stirred and centrifuged (5000×g, 10 min). The dichloromethane layer was recovered from the separated layer, then evaporated under reduced pressure. The obtained residue was dissolved in 100 μl of acetonitrile, and the solution was analyzed by HPLC under the following conditions.
# Then 2 ml of dichloromethane was added to the solution, and the solution was stirred vigorously and centrifuged (15,000×g, 5 min). The dichloromethane layer was recovered, and the solvent was removed under reduced pressure. The obtained residue was dissolved in 100 μl of acetonitrile and the solution was subjected to analysis by HPLC under the same conditions as above.
# Then the solution was centrifuged (5000×g, 10 min) to give a supernatant. The obtained supernatant solution was subjected to the HPLC analysis under the following conditions.
# (§7) Then the solution was centrifuged (5000×g, 10 min) to give a supernatant. 62.5 μl of 15% trichloroacetic acid and 2 ml of chloroform were added to the obtained supernatant solution, and the resultant solution was stirred well. The chloroform layer was recovered from the separated layer. Then 4 ml of sodium hydroxide solution containing 0.1 M NaCl was added to the solution and centrifuged again (5000×g, 10 min).
# Then perchlorate was added to the solution, so that the final concentration of the perchlorate was 10% (v/v). The solution was sufficiently stirred and centrifuged (15,000×g, 15 min) to give the supernatant. The obtained supernatant was subjected to HPLC analysis according to the following conditions.
# Then the solution was diluted with equal volume of methanol, sufficiently stirred and centrifuged (15,000×g, 5 min) to give the supernatant. The obtained supernatant was subjected to HPLC analysis according to the following conditions.
# [9] = target: T2, human P450 2E1; test: Metabolism (hydroxylation) of substrates using transformed yeast cells or microsomal fractions expressing human P450 2E1; settings: microsomes
# Method: as §4
# [10] = tested on: human P450 2C8; test: Metabolism (hydroxylation) of substrates using transformed yeast cells or microsomal fractions expressing human P450 2C8; settings: microsomes
# Method: as §4
# [11] = tested on: human P450 2D6; test: Metabolism (hydroxylation) of substrates using transformed yeast cells or microsomal fractions expressing human P450 2D6; settings: microsomes
# Method: as §4
# [12] = tested on: human P450 3A4; test: Metabolism (hydroxylation) of substrates using transformed yeast cells or microsomal fractions expressing human P450 3A4; settings: microsomes
# Method: as §4
# [13] = target: human P450 2C9 (Homo sapiens, UniProt P11712); test: Metabolism (hydroxylation) of substrates using transformed yeast cells or microsomal fractions expressing human P450 2C9; settings: microsomes
# Chain of human P450 2C9 (P11712 whole entry): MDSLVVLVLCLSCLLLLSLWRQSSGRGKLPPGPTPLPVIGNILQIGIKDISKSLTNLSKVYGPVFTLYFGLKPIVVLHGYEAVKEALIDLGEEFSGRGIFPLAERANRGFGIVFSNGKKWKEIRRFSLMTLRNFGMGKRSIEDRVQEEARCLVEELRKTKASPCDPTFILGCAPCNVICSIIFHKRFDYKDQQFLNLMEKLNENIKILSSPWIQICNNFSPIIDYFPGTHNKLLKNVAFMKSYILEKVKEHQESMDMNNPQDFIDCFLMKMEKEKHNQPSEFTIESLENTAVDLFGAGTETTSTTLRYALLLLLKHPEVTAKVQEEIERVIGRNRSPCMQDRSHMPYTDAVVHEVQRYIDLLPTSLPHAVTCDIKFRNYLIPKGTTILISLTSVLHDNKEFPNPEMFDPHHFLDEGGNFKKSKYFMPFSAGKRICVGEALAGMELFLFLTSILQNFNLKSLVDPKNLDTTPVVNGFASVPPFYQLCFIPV
# Method: as §4
# [14] = target: T6, human P450 2C18 (Homo sapiens, UniProt P33260); test: Metabolism (hydroxylation) of substrates using transformed yeast cells or microsomal fractions expressing human P450 2C18; settings: microsomes
# T6 sequence (P33260 26-490): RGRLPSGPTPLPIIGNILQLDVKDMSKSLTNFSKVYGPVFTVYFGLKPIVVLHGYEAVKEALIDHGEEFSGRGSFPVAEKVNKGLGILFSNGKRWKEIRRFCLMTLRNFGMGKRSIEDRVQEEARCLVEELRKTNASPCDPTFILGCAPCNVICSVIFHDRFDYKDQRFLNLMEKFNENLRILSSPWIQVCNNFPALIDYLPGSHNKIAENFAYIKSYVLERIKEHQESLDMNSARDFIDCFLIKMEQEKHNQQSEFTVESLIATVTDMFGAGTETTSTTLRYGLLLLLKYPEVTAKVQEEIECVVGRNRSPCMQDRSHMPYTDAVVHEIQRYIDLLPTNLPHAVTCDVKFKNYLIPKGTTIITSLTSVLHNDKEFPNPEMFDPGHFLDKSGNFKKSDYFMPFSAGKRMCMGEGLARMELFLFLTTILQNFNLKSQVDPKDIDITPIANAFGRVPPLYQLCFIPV
# Method: as §4
# [15] = tested on: human P450 2A6; test: Metabolism (hydroxylation) of substrates using transformed yeast cells or microsomal fractions expressing human P450 2A6; settings: microsomes
# Method: as §4
# [16] = target: T3, human P450 1A2; test: Metabolism (hydroxylation) of substrates using transformed yeast cells or their microsomal fractions expressing human P450 1A2 and yeast NADPH-P450 reductase; settings: microsomes
# Method: as §4
# [17] = tested on: other human P450 molecular species
# Method: as §5, §6, §7
# Then perchlorate was added to the solution, so that the final concentration of the perchlorate was 10% (v/v). The solution was sufficiently stirred and centrifuged (15,000×g, 15 min) to give the supernatant. […]
# [18] = Table 1 hydroxylation activity, metabolic activation in Ames test
# [19] = compound at 1 μg/plate (90 mm dia.), yeast S-9 Mix fraction and microsomal fraction
"Hydroxylation activity, human P450 2B6 [6]","Hydroxylation activity, human P450 2C19 [7]","Hydroxylation activity, human P450 1A1 [8]","Hydroxylation activity, human P450 2E1 [9]","Hydroxylation activity, human P450 2C8 [10]","Hydroxylation activity, human P450 2D6 [11]","Hydroxylation activity, human P450 3A4 [12]","Hydroxylation activity, human P450 2C9 [13]","Hydroxylation activity, human P450 2C18 [14]","Hydroxylation activity, human P450 2A6 [15]","Hydroxylation activity, human P450 1A2 [16]",Compound,further results
,,,,,,,,,,,Nc1ccc2cc3ccccc3cc2c1 [2-Aminoanthracene],"Ames test revertant colonies in words, human cytochrome P450 2A6 [1]: not found; Activity in Table 1 for 2-aminoanthracene (Ames test), human P450 2A6 [1, 18]: −; Ames test revertant colonies in words, human cytochrome P450 2C8 [2]: not found; Activity in Table 1 for 2-aminoanthracene (Ames test), human P450 2C8 [2, 18]: −; Ames test activity in words, human P450 2E1 [3]: moderate activity; Activity in Table 1 for 2-aminoanthracene (Ames test), human P450 2E1 [3, 18]: + +; Revertant colonies detected, yeast expressing human P450 2E1 (AH22/p2E1R) [3, 19]: more than 1000 revertant colonies; Ames test revertant colonies in words, human cytochrome P450 3A4 [4]: not found; Activity in Table 1 for 2-aminoanthracene (Ames test), human P450 3A4 [4, 18]: −; Ames test activity in words, human cytochrome P450 1A2 [5]: high activity; Concentration at which mutagenicity can be detected ([5]; 20 pmol of P450 1A2 used): about 0.1 μg; Activity in Table 1 for 2-aminoanthracene (Ames test), human P450 1A2 [5, 18]: + + +; Revertant colonies detected, yeast expressing human P450 1A2 (AH22/p1A2R) [5, 19]: more than 1000 revertant colonies"
+ + +,+,+ + +,+ +,+,+ +,+,+,+,+ +,+ +,CCOc1ccc2ccc(=O)oc2c1 [7-Ethoxycoumarin],
+ +,+ +,+ +,+ +,+ +,+ + +,+,+ +,+ +,+ +,+ + +,CC(=O)Nc1ccccc1 [Acetanilide],
−,−,−,−,−,−,−,−,−,+ + +,−,O=c1ccc2ccccc2o1 [Coumarin],Hydroxylated metabolite / hydroxylation activity with yeast expressing other human P450 than those named [17]: no activity
−,+ +,−,−,+,−,,,+,−,−,CCCCNC(=O)NS(=O)(=O)c1ccc(C)cc1 [Tolbutamide],Hydroxylated metabolite / hydroxylation activity with yeast expressing other human P450 than those named ([17]; microsomes): not detected
